# Test results as given in patent US20130109646A1, “METHOD FOR TREATING GLAUCOMA OR OCULAR HYPERTENSION WITH AN ADENOSINE DERIVATIVE” (priority 2007, published 2013).
# Legend:
# intraocular pressure [1] = experiment: Test for intraocular pressure reduction using cynomolgus monkeys; format: in vivo; details: male cynomolgus monkeys; for Maximum intraocular pressure reduction degree: 0.1% (w/v) test liquid instilled into one eye twice a day for 7 days, maximum over 2, 4, 6, 8 h after administration (Compound B: pH 7, 1, 2, 4, 6 h), average of 5 to 6 cases
# Protocol: In order to examine the usefulness of the present compound as a preventive or therapeutic agent for glaucoma or ocular hypertension, an intraocular pressure lowering effect when the present compound was administered to cynomolgus monkeys (sex: male) was evaluated and studied. As the test compound, Compound A, Compound B, Compound C, Compound D, Compound E, Compound F, Compound G, Compound H and Compound I were used.
# 1) Just before a test liquid was administered, one drop of 0.4% oxybuprocaine hydrochloride eye drop was instilled into both eyes of each experimental animal to achieve local anesthesia, and the intraocular pressure was measured using an applanation tonometer. This intraocular pressure was determined as an initial intraocular pressure.
# 2) A 0.1% (w/v) test liquid (a solution or suspension) was prepared, and the test liquid was instilled into one eye of each experimental animal twice a day for 7 days. The other eye was left untreated, or a vehicle was instilled into the eye according to the same schedule. Incidentally, the test liquid was prepared according to the preparation method for an eye drop described above. Specifically, to 10 mM phosphate buffer or 1.7% borate buffer, polysorbate 80 and any of the test compounds were added and dissolved or dispersed therein. Then, the pH of the resulting solution or dispersion was adjusted to 5 with sodium hydroxide and/or dilute hydrochloric acid, whereby a test liquid containing each test compound was prepared (only in the case of Compound B, the pH of the test liquid was adjusted to 7).
# 3) After the test liquid was administered, the intraocular pressure of both eyes of each experimental animal was measured at predetermined times (at 2, 4, 6, and 8 hours after administration) (only in the case of Compound B, the intraocular pressure was measured at 1, 2, 4 and 6 hours after administration). Incidentally, before measurement, one drop of 0.4% oxybuprocaine hydrochloride eye drop was instilled into both eyes of each experimental animal to achieve local anesthesia.
# The intraocular pressure reduction degree of each test compound administration group at each measurement time was calculated from the following calculation formula. Among the obtained intraocular pressure reduction degrees at respective measurement times, the maximum value was determined as a maximum intraocular pressure reduction degree.
# Intraocular pressure reduction degree(mmHg)=|IOP (D−t)−IOP(D−0)| Equation 1
# IOP (D-t): Intraocular pressure of the eye into which the test compound was administered at t hours after administration of test compound IOP (D-0): Initial intraocular pressure of the eye into which the test compound was administered
# intraocular pressure [2] = experiment: Test for intraocular pressure reduction using Japanese white rabbits; format: in vivo; details: male Japanese white rabbits; for Intraocular pressure reduction degree: single dose into one eye, at 2 or 4 hours after instillation at which the pressure decreased most, average of 5 to 6 cases; for intraocular pressure lowering action (in words): single instillation, 0.003 to 0.2% (w/v) depending on compound
# Protocol: In order to examine the usefulness of the present compound as a preventive or therapeutic agent for glaucoma or ocular hypertension, an intraocular pressure lowering effect when the present compound was administered to Japanese white rabbits (sex: male) was evaluated and studied. As the test compound, Compound A, Compound B, Compound C, Compound E, Compound I and Compound J were used. According to the preparation method for an eye drop described above, each test liquid containing Compound A (0.003% (w/v)), Compound B (0.2% (w/v)), Compound C (0.01% (w/v)), Compound E (0.01% (w/v)), Compound I (0.01% (w/v)) or Compound J (0.01% (w/v)) was prepared. Specifically, to 10 mM phosphate buffer or 1.7% borate buffer, polysorbate 80 and any of the test compounds were added and dissolved or dispersed therein. Then, the pH of the resulting solution or dispersion was adjusted to 5 with sodium hydroxide and/or dilute hydrochloric acid, whereby a test liquid containing each test compound was prepared (only in the case of Compound B, the pH of the test liquid was adjusted to 7). 1) Just before any of the test liquids was administered, one drop of 0.4% oxybuprocaine hydrochloride eye drop was instilled into both eyes of each experimental animal to achieve local anesthesia, and the intraocular pressure was measured using an applanation tonometer. This intraocular pressure was determined as an initial intraocular pressure. 2) Any of the prepared test liquids was administered into one eye of each experimental animal in a single dose. The other eye was left untreated, or a vehicle was instilled into the eye according to the same schedule. 3) After the test liquid was administered, the intraocular pressure of both eyes of each experimental animal was measured at predetermined times (at […] after administration). Incidentally, before measurement, one drop of 0.4% oxybuprocaine hydrochloride eye drop was instilled into both eyes of each experimental animal to achieve local anesthesia. The intraocular pressure reduction degree of each test compound administration group at each measurement time was calculated from the following calculation formula. Intraocular pressure reduction degree (mmHg)=|IOP (Ad−t)−IOP(Ad−0) Equation 2 IOP (Ad-t): Intraocular pressure of the eye into which the test compound was administered at t hours after administration of test compound IOP (Ad-0): Initial intraocular pressure of the eye into which the test compound was administered
Compound,Maximum intraocular pressure reduction degree (intraocular pressure [1]),Intraocular pressure reduction degree (intraocular pressure [2]; 0.01% (w/v) test liquid),also measured
"COC(=O)N1CCC(CC#Cc2nc(N)c3ncn([C@@H]4O[C@H](C(=O)NC5CC5)[C@@H](O)[C@H]4O)c3n2)CC1 [Compound A, 4-{3-[6-amino-9-((2R,3R,4S,5S)-5-cyclopropylcarbamoyl-3,4-dihydroxytetrahydrofuran-2-yl)-9H-purin-2-yl]-2-propynyl}-piperidine-1-carboxylic acid methyl ester]",4.9 mmHg,,"intraocular pressure lowering action (in words) (intraocular pressure [1]; 0.1% (w/v) instilled twice a day for 7 days): significantly higher intraocular pressure lowering action among the present compounds; lowering of trough intraocular pressure by repeated instillation (in words) (intraocular pressure [1]; 0.1% (w/v) repeated instillation (BID)): exhibited a high lowering action; trough intraocular pressure value on day 7, lower than that in the vehicle administration group (intraocular pressure [1]; 0.1% (w/v) repeated instillation (BID) for 7 days, difference from vehicle group): 1.0 mmHg; Intraocular pressure reduction degree (intraocular pressure [2]; 0.003% (w/v) test liquid): 3.8 mmHg; intraocular pressure lowering action (in words) (intraocular pressure [2]): significantly higher intraocular pressure lowering action among the present compounds"
"CCNC(=O)[C@H]1O[C@@H](n2cnc3c(N)nc(C#CCC4CCC(C(=O)OC)CC4)nc32)[C@H](O)[C@@H]1O (stereo partly drawn) [Compound B, 4-{3-[6-amino-9-((2R,3R,4S,5S)-5-ethylcarbamoyl-3,4-dihydroxytetrahydrofuran-2-yl)-9H-purin-2-yl]-2-propynyl}-cyclohexane-1-carboxylic acid methyl ester]",2.2 mmHg,,Intraocular pressure reduction degree (intraocular pressure [2]; 0.2% (w/v) test liquid (pH 7)): 2.1 mmHg
"CCNC(=O)[C@H]1O[C@@H](n2cnc3c(N)nc(C#CCC4CCN(C(=O)OC)CC4)nc32)[C@H](O)[C@@H]1O [Compound C, 4-{3-[6-amino-9-((2R,3R,4S,5S)-5-ethylcarbamoyl-3,4-dihydroxytetrahydrofuran-2-yl)-9H-purin-2-yl]-2-propynyl}-piperidine-1-carboxylic acid methyl ester]",2.7 mmHg,2.8 mmHg,
"CCNC(=O)[C@H]1O[C@@H](n2cnc3c(N)nc(C#CCC4CCN(C(=O)OCC)CC4)nc32)[C@H](O)[C@@H]1O [Compound D, 4-{3-[6-amino-9-((2R,3R,4S,5S)-5-ethylcarbamoyl-3,4-dihydroxytetrahydrofuran-2-yl)-9H-purin-2-yl]-2-propynyl}-piperidine-1-carboxylic acid ethyl ester]",2.9 mmHg,,
"CCNC(=O)[C@H]1O[C@@H](n2cnc3c(N)nc(C#CCC4CCN(C(=O)OC(C)C)CC4)nc32)[C@H](O)[C@@H]1O [Compound E, 4-{3-[6-amino-9-((2R,3R,4S,5S)-5-ethylcarbamoyl-3,4-dihydroxytetrahydrofuran-2-yl)-9H-purin-2-yl]-2-propynyl}-piperidine-1-carboxylic acid isopropyl ester]",2.9 mmHg,2.6 mmHg,
"Nc1nc(C#CCC2CCN(C(=O)Oc3ccc(F)cc3)CC2)nc2c1ncn2[C@@H]1O[C@H](C(=O)NC2CC2)[C@@H](O)[C@H]1O [Compound F, 4-{3-[6-amino-9-((2R,3R,4S,5S)-5-cyclopropylcarbamoyl-3,4-dihydroxytetrahydrofuran-2-yl)-9H-purin-2-yl]-2-propynyl}-piperidine-1-carboxylic acid 4-fluorophenyl ester]",2.7 mmHg,,
"COc1ccccc1OC(=O)N1CCC(CC#Cc2nc(N)c3ncn([C@@H]4O[C@H](C(=O)NC5CC5)[C@@H](O)[C@H]4O)c3n2)CC1 [Compound G, 4-{3-[6-amino-9-((2R,3R,4S,5S)-5-cyclopropylcarbamoyl-3,4-dihydroxytetrahydrofuran-2-yl)-9H-purin-2-yl]-2-propynyl}-piperidine-1-carboxylic acid 2-methoxyphenyl ester]",2.7 mmHg,,
"COc1ccc(OC(=O)N2CCC(CC#Cc3nc(N)c4ncn([C@@H]5O[C@H](C(=O)NC6CC6)[C@@H](O)[C@H]5O)c4n3)CC2)cc1 [Compound H, 4-{3-[6-amino-9-((2R,3R,4S,5S)-5-cyclopropylcarbamoyl-3,4-dihydroxytetrahydrofuran-2-yl)-9H-purin-2-yl]-2-propynyl}-piperidine-1-carboxylic acid 4-methoxyphenyl ester]",2.3 mmHg,,
"Nc1nc(C#CCC2CCN(C(=O)Oc3ccc(F)c(F)c3)CC2)nc2c1ncn2[C@@H]1O[C@H](C(=O)NC2CC2)[C@@H](O)[C@H]1O [Compound I, 4-{3-[6-amino-9-((2R,3R,4S,5S)-5-cyclopropylcarbamoyl-3,4-dihydroxytetrahydrofuran-2-yl)-9H-purin-2-yl]-2-propynyl}-piperidine-1-carboxylic acid 3,4-difluorophenyl ester]",1.8 mmHg,1.7 mmHg,
"Nc1nc(C#CCC2CCN(C(=O)OC3CCC3)CC2)nc2c1ncn2[C@@H]1O[C@H](C(=O)NC2CC2)[C@@H](O)[C@H]1O [Compound J, 4-{3-[6-amino-9-((2R,3R,4S,5S)-5-cyclopropylcarbamoyl-3,4-dihydroxytetrahydrofuran-2-yl)-9H-purin-2-yl]-2-propynyl}-piperidine-1-carboxylic acid cyclobutyl ester]",,4.1 mmHg,intraocular pressure lowering action (in words) (intraocular pressure [2]): significantly higher intraocular pressure lowering action among the present compounds
